Experimental findings from patent publication US20110144159A1, “ETHER BENZYLIDENE PIPERIDINE ARYL CARBOXAMIDE COMPOUNDS USEFUL AS FAAH INHIBITORS” (Pfizer Inc, priority 2008, published 2011) are described below.

For one experiment, the target named is T1, Human FAAH (Homo sapiens, UniProt O00519).
T1 construct: made in house
T1 sequence (O00519 32-579 limits assumed): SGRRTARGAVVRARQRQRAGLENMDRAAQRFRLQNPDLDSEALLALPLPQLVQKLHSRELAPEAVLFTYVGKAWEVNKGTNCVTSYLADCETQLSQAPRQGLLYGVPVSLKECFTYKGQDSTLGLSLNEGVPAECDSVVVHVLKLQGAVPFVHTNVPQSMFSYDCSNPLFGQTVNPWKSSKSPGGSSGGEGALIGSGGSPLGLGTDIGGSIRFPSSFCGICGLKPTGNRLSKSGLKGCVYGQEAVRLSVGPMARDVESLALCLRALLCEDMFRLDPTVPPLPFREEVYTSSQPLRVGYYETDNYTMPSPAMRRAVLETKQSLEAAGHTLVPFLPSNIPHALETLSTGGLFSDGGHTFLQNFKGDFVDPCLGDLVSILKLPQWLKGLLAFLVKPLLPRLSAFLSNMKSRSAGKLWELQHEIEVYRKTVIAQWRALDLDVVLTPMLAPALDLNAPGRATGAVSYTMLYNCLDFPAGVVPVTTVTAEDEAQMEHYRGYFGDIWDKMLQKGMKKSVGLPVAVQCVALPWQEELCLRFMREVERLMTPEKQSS
The experiment can be described thus: FAAH assay (glutamate dehydrogenase-coupled, oleamide substrate, absorbance at 340 nm). To be noted: further compounds, read-out: hFAAH_Kinact/Ki—StL. It is filed as biochemical. As to the method: A FAAH assay may be carried out in 384-well clear polystyrene plates in a total volume of 50 μl per well. All percents are by volume. To each well was placed the reaction mixture (40 μl) containing 1-4 nM FAAH, 50 mM NaPi, pH 7.4, 3 mM α-ketoglutarate, 0.15 mM NADH, 7.5 U/ml glutamate dehydrogenase, 2 mM ADP, 1 mM EDTA, and 0.1% Triton X-100 (The concentration shown for each component was the final concentration in the assay). To this mixture was added 5 μl of a compound of Examples 1 to 20 at various concentrations prepared in 50% DMSO (or 5 μl 50% DMSO for controls). This was immediately followed by the addition of 5 μl oleamide (500 μM) dissolved in 75% EtOH/25% DMSO and the reaction mixture was mixed for 1.5 min. The final concentrations of DMSO and EtOH in the assay are each 7.5%. The reactions was then incubated at 30° C. and the absorbance at 340 nm was collected over a period of 90 min with readings taken in 30-second intervals using SpectraMax Plus^384 Microplate Spectrophotometer (Molecular Devices, Sunnyvale, Calif.). Human FAAH used in the assay was prepared as described in the patent application WO 2006/067613. The purity of the enzyme used was greater than 98% based on an analysis by SDS-polyacrylamide gel electrophoresis followed by Coomassie Blue staining.
Initial velocity data (V) is obtained from the slopes of the initial progressive curves. They are plotted as a function of substrate concentration and fit to the Michaelis-Menten equation (1) using Prism (GraphPad Software, Inc., San Diego, Calif.) software to obtain Km and Vmax values.
To obtain potencies of irreversible inhibitors, progressive curves consistent with first order inhibition kinetics (two-step irreversible inhibition mechanism) are fit to equation (2) by nonlinear least squares regressions to determine kobs values at each inhibitor concentration, where [P]t is the absorbance at time t, V0 is a constant related to the steady state rate of the uninhibited reaction, and kobs is the first order rate constant for enzyme inactivation. The inhibitor dissociation constant (Ki) and the first order rate
constant of enzyme inactivation at infinite inhibitor concentration (kinact) are then obtained by fitting the kobs vs. [I] curves to equation (3).
`COc1cnc(NC(=O)N2CCC(=Cc3cccc(OCC4CCCCO4)c3)CC2)cn1` (centres unmarked) [N-(5-methoxypyrazin-2-yl)-4-[3-(tetrahydro-2H-pyran-2-ylmethoxy)benzylidene]piperidine-1-carboxamide]: the kinact/KI amounted to 404 M⁻¹ s⁻¹. For `O=C(Nc1cccnc1)N1CCC(=Cc2cccc(OCC3CCCCO3)c2)CC1` (centres unmarked) [N-pyridin-3-yl-4-[3-(tetrahydro-2H-pyran-2-ylmethoxy)benzylidene]piperidine-1-carboxamide], the kinact/KI came out at 3130 M⁻¹ s⁻¹. For the compound `COc1ccc(NC(=O)N2CCC(=Cc3cccc(OCC4CCCCO4)c3)CC2)cn1` (centres unmarked) [N-(6-methoxypyridin-3-yl)-4-[3-(tetrahydro-2H-pyran-2-ylmethoxy)benzylidene]piperidine-1-carboxamide], the kinact/KI came out at 950 M⁻¹ s⁻¹.

Staying with this experiment, now noted: irreversible inhibition potency.
Turning to `O=C(Nc1cccnn1)N1CCC(=Cc2cccc(OCC3CCCCO3)c2)CC1` (centres unmarked) [Example 104, N-pyridazin-3-yl-4-[3-(tetrahydro-2H-pyran-2-ylmethoxy)benzylidene]piperidine-1-carboxamide], the “hFAAH KInact/K” value was determined as 4050 M⁻¹ s⁻¹.

`Cc1cc(COc2cccc(C=C3CCN(C(=O)Nc4cccnn4)CC3)c2)nn1C` [Example 70, 4-{3-[(1,5-dimethyl-1H-pyrazol-3-yl)methoxy]benzylidene}-N-pyridazin-3-ylpiperidine-1-carboxamide]: the “hFAAH KInact/K” value stood at 116 M⁻¹ s⁻¹. Consider `CC(C)(C)CCOc1cccc(C=C2CCN(C(=O)Nc3cccnn3)CC2)c1` [Example 48, 4-[3-(3,3-dimethylbutoxy)benzylidene]-N-pyridazin-3-ylpiperidine-1-carboxamide], for which the “hFAAH KInact/K” value was determined as 2580 M⁻¹ s⁻¹. For the compound `O=C(Nc1cccnn1)N1CCC(=Cc2cccc(OCCC3CC3)c2)CC1` [Example 83, 4-[3-(2-cyclopropylethoxy)benzylidene]-N-pyridazin-3-ylpiperidine-1-carboxamide], the “hFAAH KInact/K” value stood at 22138 M⁻¹ s⁻¹. For `O=C(Nc1cccnn1)N1CCC(=Cc2cccc(OC3CC3)c2)CC1` [Example 33, 4-[3-(cyclopropyloxy)benzylidene]-N-pyridazin-3-ylpiperidine-1-carboxamide], the “hFAAH KInact/K” value came to 1730 M⁻¹ s⁻¹.

For `O=C(Nc1cccnn1)N1CCC(=Cc2cccc(OCCc3cnoc3)c2)CC1` [Example 60, 4-[3-(2-isoxazol-4-ylethoxy)benzylidene]-N-pyridazin-3-ylpiperidine-1-carboxamide], the “hFAAH KInact/K” value amounted to 2190 M⁻¹ s⁻¹. On to `COCCOc1cccc(C=C2CCN(C(=O)Nc3cccnn3)CC2)c1` [Example 66, 4-[3-(2-methoxyethoxy)benzylidene]-N-pyridazin-3-ylpiperidine-1-carboxamide], for which the “hFAAH KInact/K” value was determined as 503 M⁻¹ s⁻¹. Take `O=C(Nc1cccnn1)N1CCC(=Cc2cccc(OCc3ccc(C(F)(F)F)cn3)c2)CC1` [Example 73, N-pyridazin-3-yl-4-(3-{[5-(trifluoromethyl)pyridin-2-yl]methoxy}benzylidene)piperidine-1-carboxamide]: the “hFAAH KInact/K” value is 1470 M⁻¹ s⁻¹.

With `O=C(Nc1cccnc1)N1CCC(=Cc2cccc(OC3CCOC3)c2)CC1` (centres unmarked) [Example 20, N-pyridin-3-yl-4-[3-(tetrahydrofuran-3-yloxy)benzylidene]piperidine-1-carboxamide], the “hFAAH KInact/K” value amounted to 451 M⁻¹ s⁻¹. Take `Cc1noc(C)c1COc1cccc(C=C2CCN(C(=O)Nc3cccnn3)CC2)c1` [Example 65, 4-{3-[(3,5-dimethylisoxazol-4-yl)methoxy]benzylidene}-N-pyridazin-3-ylpiperidine-1-carboxamide]: the “hFAAH KInact/K” value stood at 130 M⁻¹ s⁻¹. Turning to `C=CC(C)Oc1cccc(C=C2CCN(C(=O)Nc3cccnc3)CC2)c1` (centres unmarked) [Example 25, 4-{3-[(1-methylprop-2-en-1-yl)oxy]benzylidene}-N-pyridin-3-ylpiperidine-1-carboxamide], the “hFAAH KInact/K” value amounted to 939 M⁻¹ s⁻¹. Consider `COc1ccc(CCOc2cccc(C=C3CCN(C(=O)Nc4cccnn4)CC3)c2)cc1` [Example 77, 4-{3-[2-(4-methoxyphenyl)ethoxy]benzylidene}-N-pyridazin-3-ylpiperidine-1-carboxamide], for which the “hFAAH KInact/K” value came out at 207 M⁻¹ s⁻¹.

On to `O=C(Nc1cccnn1)N1CCC(=Cc2cccc(OCCCc3cnoc3)c2)CC1` [Example 94, 4-[3-(3-isoxazol-4-ylpropoxy)benzylidene]-N-pyridazin-3-ylpiperidine-1-carboxamide], for which the “hFAAH KInact/K” value was determined as 27713 M⁻¹ s⁻¹. Turning to `O=C(Nc1cccnc1)N1CCC(=Cc2cccc(OC3CCOCC3)c2)CC1` [Example 43, N-pyridin-3-yl-4-[3-(tetrahydro-2H-pyran-4-yloxy)benzylidene]piperidine-1-carboxamide], the “hFAAH KInact/K” value amounted to 738 M⁻¹ s⁻¹. As for `O=C(Nc1cccnn1)N1CCC(=Cc2cccc(OCC3CCC(C(F)(F)F)CC3)c2)CC1` (centres unmarked) [Example 103, N-pyridazin-3-yl-4-(3-{[4-(trifluoromethyl)cyclohexyl]methoxy}benzylidene)piperidine-1-carboxamide], the “hFAAH KInact/K” value was 1537 M⁻¹ s⁻¹. For the compound `O=C(Nc1cccnn1)N1CCC(=Cc2cccc(OCC3CCCC3)c2)CC1` [Example 86, 4-[3-(cyclopentylmethoxy)benzylidene]-N-pyridazin-3-ylpiperidine-1-carboxamide], the “hFAAH KInact/K” value was 6267 M⁻¹ s⁻¹. As for `CCC(CC)Oc1cccc(C=C2CCN(C(=O)Nc3cccnn3)CC2)c1` [Example 27, 4-[3-(1-ethylpropoxy)benzylidene]-N-pyridazin-3-ylpiperidine-1-carboxamide], the “hFAAH KInact/K” value stood at 1030 M⁻¹ s⁻¹. Turning to `Cc1ncsc1CCOc1cccc(C=C2CCN(C(=O)Nc3cccnn3)CC2)c1` [Example 105, 4-{3-[2-(4-methyl-1,3-thiazol-5-yl)ethoxy]benzylidene}-N-pyridazin-3-ylpiperidine-1-carboxamide], the “hFAAH KInact/K” value was determined as 6410 M⁻¹ s⁻¹. With “4-{3-[2-(3-methoxyphenyl)ethoxy]benzylidene}-N-pyridazin-3-ylpiperidine-1-carboxamide [Example 85]”, the “hFAAH KInact/K” value was 7770 M⁻¹ s⁻¹. `CCCC(C)Oc1cccc(C=C2CCN(C(=O)Nc3cccnc3)CC2)c1` (centres unmarked) [Example 35, 4-[3-(1-methylbutoxy)benzylidene]-N-pyridin-3-ylpiperidine-1-carboxamide]: the “hFAAH KInact/K” value is 2680 M⁻¹ s⁻¹. As for `O=C(Nc1cccnn1)N1CCC(=Cc2cccc(OCC3CCC(F)(F)CC3)c2)CC1` [Example 82, 4-{3-[(4,4-difluorocyclohexyl)methoxy]benzylidene}-N-pyridazin-3-ylpiperidine-1-carboxamide], the “hFAAH KInact/K” value turned out to be 6850 M⁻¹ s⁻¹. With `CCCC(CC)Oc1cccc(C=C2CCN(C(=O)Nc3cccnn3)CC2)c1` (centres unmarked) [Example 41, 4-[3-(1-ethylbutoxy)benzylidene]-N-pyridazin-3-ylpiperidine-1-carboxamide], the “hFAAH KInact/K” value turned out to be 1800 M⁻¹ s⁻¹. On to `CCCCOc1cccc(C=C2CCN(C(=O)Nc3cccnn3)CC2)c1` [Example 51, 4-(3-butoxybenzylidene)-N-pyridazin-3-ylpiperidine-1-carboxamide], for which the “hFAAH KInact/K” value is 8350 M⁻¹ s⁻¹. Same read-out and setting: to `O=C(Nc1cccnn1)N1CCC(=Cc2cccc(OC3CCOC3)c2)CC1` (centres unmarked) [Example 17, N-pyridazin-3-yl-4-[3-(tetrahydrofuran-3-yloxy)benzylidene]piperidine-1-carboxamide] belongs 371 M⁻¹ s⁻¹; to `Cc1cccc(COc2cccc(C=C3CCN(C(=O)Nc4cccnn4)CC3)c2)n1` [Example 67, 4-{3-[(6-methylpyridin-2-yl)methoxy]benzylidene}-N-pyridazin-3-ylpiperidine-1-carboxamide], 370 M⁻¹ s⁻¹; to `CC1CCC(Oc2cccc(C=C3CCN(C(=O)Nc4cccnn4)CC3)c2)CC1` (centres unmarked) [Example 39, 4-{3-[(4-methylcyclohexyl)oxy]benzylidene}-N-pyridazin-3-ylpiperidine-1-carboxamide], 2090 M⁻¹ s⁻¹.
